By EC50 is commonly meant the concentration that produces a half-maximal response.

The target of the test is T1, APJ Receptor (Homo sapiens, UniProt P35414).
T1 sequence (P35414 1-380): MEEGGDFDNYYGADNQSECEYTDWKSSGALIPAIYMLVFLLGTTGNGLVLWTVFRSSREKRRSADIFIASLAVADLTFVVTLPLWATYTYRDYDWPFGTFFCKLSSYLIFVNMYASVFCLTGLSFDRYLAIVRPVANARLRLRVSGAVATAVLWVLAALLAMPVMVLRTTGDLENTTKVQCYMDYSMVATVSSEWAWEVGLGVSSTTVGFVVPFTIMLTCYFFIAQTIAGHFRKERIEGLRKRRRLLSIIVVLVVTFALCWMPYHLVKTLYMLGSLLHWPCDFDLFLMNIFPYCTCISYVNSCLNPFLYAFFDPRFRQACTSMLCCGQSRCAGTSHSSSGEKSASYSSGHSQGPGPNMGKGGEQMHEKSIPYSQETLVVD
The experiment in a line: APJ cAMP assay (DiscoverX enzyme fragment complementation; inhibition of forskolin-stimulated cAMP). Format: cell-based. The note with it: CHO-K1 cell line stably expressing the APJ Receptor; EC80 forskolin; 30 minutes at 37° C.; read-out: Potency Range (APJ cAMP EC50). The source says: Activation of APJ receptor is known to inhibit forskolin-stimulated cyclic AMP (cAMP) production in cells in a pertussis toxin-sensitive manner which indicates primary coupling to the GαI subunit of the G protein heterotrimeric complex. In addition to signaling through G protein and inhibition of cAMP, APJ receptor activation also results in β-arrestin recruitment, receptor internalization and activation of extracellular-regulated kinases (ERKs).
In order to optimize functional activity directed toward Gi coupling we utilized a CHO-K 1 cell line developed by DiscoverX stably expressing the APJ Receptor. Cells expressing APJR receptor were plated in a 384-well microtiter plates and incubated overnight at 37° C. with 5% CO2 to allow the cells to attach and grow. Media was then aspirated from the cells and replaced with 15 uL 2:1 Hanks Balanced Salt Solution (HBSS)/10 mM Hepes:cAMP XS+Ab reagent. Five microliters (5 uL) of previously generated compound sample stocks at 4× final concentration in assay buffer containing 4× EC80 forskolin were then added to the cells and allowed to incubate at 37° C. for 30 minutes.
After incubation the assay signal was generated using a technology termed enzyme fragment complementation (EFC). In EFC the enzyme B-galactosidase is split into two complementary portions (EA and ED). The fragment ED is fused to cAMP and in the assay format competes with endogenous cAMP for binding to a cAMP specific antibody. Activated B-Gal is formed when exogenous EA fragment binds to free ED-cAMP (not bound to cAMP specific antibody). Activated enzyme levels are detected through conversion of B-gal chemiluminescent substrate which generates a detectable luminescence signal and read on standard microtiter plate.
The methodology for detection of cAMP using EFC requires incubation with 20 uL of cAMP XS+ED/CL lysis cocktail for one hour followed by incubation with 20 uL cAMP XS+EA reagent for three hours at room temperature. Microplates were read following signal generation with a PerkinElmer Envision instrument utilizing chemiluminescent signal detection.
Compound activity was analyzed using CBIS data analysis suite (ChemInnovation, CA). Percentage activity was calculated using the following formula: % Activity=100%×(1−(mean RLU of test sample−mean RLU of Max control)/(mean RLU of vehicle control−mean RLU of Max control))
For the compound `COc1cccc(-c2nc3ncc(NS(=O)(=O)c4ncccn4)nc3n2-c2c(OC)cccc2OC)n1` [Example 53, N-(1-(2,6-dimethoxyphenyl)-2-(6-methoxypyridin-2-yl)-1H-imidazo[4,5-b]pyrazin-6-yl)pyrimidine-2-sulfonamide], the EC50 lay in the range of 1 to 100 nM.
The value for `COc1cccc(OC)c1-n1c(-c2cccc(OC3CC3)n2)nc2ncc(NS(C)(=O)=O)nc21` [Example 54, N-(2-(6-cyclopropoxypyridin-2-yl)-1-(2,6-dimethoxyphenyl)-1H-imidazo[4,5-b]pyrazin-6-yl)methanesulfonamide] was 1 to 100 nM; that for `COc1cccc(OC)c1-n1c(-c2cccc(OCC(F)(F)F)n2)nc2ncc(NS(C)(=O)=O)nc21` [Example 55, N-(1-(2,6-dimethoxyphenyl)-2-(6-(trifluoroethoxy)pyridin-2-yl)-1H-imidazo[4,5-b]pyrazin-6-yl)methanesulfonamide] was 1 to 100 nM.
Turning to `COc1cccc(OC)c1-n1c(-c2cccc(OC(F)(F)F)n2)nc2ncc(NS(C)(=O)=O)nc21` [Example 56, N-(1-(2,6-dimethoxyphenyl)-2-(6-(trifluoromethoxy)pyridin-2-yl)-1H-imidazo[4,5-b]pyrazin-6-yl)methanesulfonamide], the 50% effective concentration (EC50) fell in the range of 100 to 10000 nM.
The value for `CCOCc1nc2ncc(NS(=O)(=O)c3ccccc3)nc2n1-c1c(OC)cccc1OC` [Example 57, N-(1-(2,6-dimethoxyphenyl)-2-(ethoxymethyl)-1H-imidazo[4,5-b]pyrazin-6-yl)benzenesulfonamide] was 100 to 10000 nM; that for `CCOc1cccc(-c2nc3ncc(NS(C)(=O)=O)nc3n2C(CC)CC)n1` [Example 58, N-(2-(6-ethoxypyridin-2-yl)-1-(pentan-3-yl)-1H-imidazo[4,5-b]pyrazin-6-yl)methanesulfonamide] was 1 to 100 nM; that for `CCOc1cccc(-c2nc3ncc(NS(C)(=O)=O)nc3n2C(C)C)n1` [Example 59, N-(2-(6-ethoxypyridin-2-yl)-1-isopropyl-II-1-imidazo[4,5-b]pyrazin-6-yl)methanesulfonamide] was 100 to 10000 nM.
Consider `CCOc1cccc(-c2nc3ncc(NS(=O)(=O)CCC(C)(C)O)nc3n2-c2c(OC)cccc2OC)n1` [Example 60, N-(1-(2,6-dimethoxyphenyl)-2-(6-ethoxypyridin-2-yl)-1H-imidazo[4,5-b]pyrazin-6-yl)-3-hydroxy-3-methylbutane-1-sulfonamide], for which the concentration giving a half-maximal response (EC50) was in the range of 1 to 100 nM.
On to `CCOc1cccc(-c2nc3ncc(NS(=O)(=O)CC4(O)CC4)nc3n2-c2c(OC)cccc2OC)n1` [Example 61, N-(1-(2,6-dimethoxyphenyl)-2-(6-ethoxypyridin-2-yl)-1H-imidazo[4,5-b]pyrazin-6-yl)-1-(1-hydroxycyclopropyl)methanesulfonamide], for which the EC50 fell in the range of 1 to 100 nM.
Turning to `CCOc1cccc(-c2nc3nc(NS(=O)(=O)CC4(O)CC4)cnc3n2-c2c(OC)cccc2OC)n1` [Example 62, N-(1-(2,6-dimethoxyphenyl)-2-(6-ethoxypyridin-2-yl)-1H-imidazo[4,5-b]pyrazin-5-yl)-1-(1-hydroxycyclopropyl)methanesulfonamide], the EC50 was 1 to 100 nM.
For the compound `CCOc1cccc(-c2nc3ccc(NS(C)(=O)=O)nc3n2-c2c(OC)cccc2OC)n1` [Example 63, N-(3-(2,6-dimethoxyphenyl)-2-(6-ethoxypyridin-2-yl)-3H-imidazo[4,5-b]pyridin-5-yl)methanesulfonamide], the 50% effective concentration (EC50) was in the range of 1 to 100 nM.
The same measure for `CCOc1cccc(-c2nc3nc(Cl)c(NS(C)(=O)=O)nc3n2-c2c(OC)cccc2OC)n1` [Example 64, N-(5-chloro-1-(2,6-dimethoxyphenyl)-2-(6-ethoxypyridin-2-yl)-1H-imidazo[4,5-b]pyrazin-6-yl)methanesulfonamide]: 1 to 100 nM.
`CCOc1cccc(-c2nc3nc(CC4CC4)c(NS(C)(=O)=O)nc3n2-c2c(OC)cccc2OC)n1` [Example 65, N-(5-(cyclopropylmethyl)-1-(2,6-dimethoxyphenyl)-2-(6-ethoxypyridin-2-yl)-1H-imidazo[4,5-b]pyrazin-6-yl)methanesulfonamide]: the EC50 was less than 1 nM.
The same measure for `CCOc1cccc(-c2nc3nc(CCC4CC4)c(NS(C)(=O)=O)nc3n2-c2c(OC)cccc2OC)n1` [Example 66, N-(5-(2-cyclopropylethyl)-1-(2,6-dimethoxyphenyl)-2-(6-ethoxypyridin-2-yl)-1H-imidazo[4,5-b]pyrazin-6-yl)methanesulfonamide]: less than 1 nM; for `CCOc1cccc(-c2nc3ncc(NCC4CC4)nc3n2-c2c(OC)cccc2OC)n1` [Example 67, N-(cyclopropylmethyl)-1-(2,6-dimethoxyphenyl)-2-(6-ethoxypyridin-2-yl)-1H-imidazo[4,5-b]pyrazin-6-amine]: 1 to 100 nM; for `CCOc1cccc(-c2nc3ncc(NS(C)(=O)=O)nc3n2-c2c(OC)ccnc2OC)n1` [Example 68, N-(1-(2,4-dimethoxypyridin-3-yl)-2-(6-ethoxypyridin-2-yl)-1H-imidazo[4,5-b]pyrazin-6-yl)methanesulfonamide]: 1 to 100 nM.
With `CCOc1cccc(-c2nc3ncc(NS(=O)(=O)Cc4cnccn4)nc3n2-c2c(OC)cccc2OC)n1` [Example 69, N-(1-(2,6-dimethoxyphenyl)-2-(6-ethoxypyridin-2-yl)-1H-imidazo[4,5-b]pyrazin-6-yl)-1-(pyrazin-2-yl)methanesulfonamide], the EC50 was in the range of 1 to 100 nM.
The value for `CCOc1cccc(-c2nc3ncc(NS(=O)(=O)CC(C)(C)O)nc3n2-c2c(OC)cccc2OC)n1` [Example 70] was 1 to 100 nM; that for `CCOc1cccc(-c2nc3ncc(NS(=O)(=O)C[C@H]4CCN(C)C(=O)C4)nc3n2-c2c(OC)cccc2OC)n1` [Example 71, (S)—N-(1-(2,6-Dimethoxyphenyl)-2-(6-ethoxypyridin-2-yl)-1H-imidazo[4,5-b]pyrazin-6-yl)-1-(1-methyl-2-oxopiperidin-4-yl)methanesulfonamide] was less than 1 nM.
Regarding `CCOc1cccc(-c2nc3ncc(NS(=O)(=O)C[C@@H]4CCN(C)C(=O)C4)nc3n2-c2c(OC)cccc2OC)n1` [Example 72, (R)—N-(1-(2,6-dimethoxyphenyl)-2-(6-ethoxypyridin-2-yl)-1H-imidazo[4,5-b]pyrazin-6-yl)-1-(1-methyl-2-oxopiperidin-4-yl)methanesulfonamide], the EC50 is less than 1 nM.
`CCOc1cccc(-c2nc3ncc(NS(=O)(=O)N4CCCC4)nc3n2-c2c(OC)cccc2OC)n1` [Example 73, N-(1-(2,6-dimethoxyphenyl)-2-(6-ethoxypyridin-2-yl)-1H-imidazo[4,5-b]pyrazin-6-yl)pyrrolidine-1-sulfonamide]: the EC50 was in the range of 1 to 100 nM.
The same measure for `CCOc1cccc(-c2nc3ncc(NS(=O)(=O)N4CCNCC4)nc3n2-c2c(OC)cccc2OC)n1` [Example 74, N-(1-(2,6-Dimethoxyphenyl)-2-(6-ethoxypyridin-2-yl)-1H-imidazo[4,5-b]pyrazin-6-yl)piperazine-1-sulfonamide]: 1 to 100 nM.
`CCOc1cccc(-c2nc3ncc(NS(=O)(=O)N4CCCCC4)nc3n2-c2c(OC)cccc2OC)n1` [Example 75, N-(1-(2,6-dimethoxyphenyl)-2-(6-ethoxypyridin-2-yl)-1H-imidazo[4,5-b]pyrazin-6-yl)piperidine-1-sulfonamide]: the EC50 was less than 1 nM.
Take `CCOc1cccc(-c2nc3ncc(NS(=O)(=O)N(C)C)nc3n2-c2c(OC)cccc2OC)n1` [Example 76, N-(1-(2,6-dimethoxyphenyl)-2-(6-ethoxypyridin-2-yl)-1H-imidazo[4,5-b]pyrazin-6-yl)-N′,N′-dimethylsulfamide]: the concentration for a half-maximal effect (EC50) lay in the range of 1 to 100 nM.
`CCOc1cccc(-c2nc3ncc(NS(=O)(=O)N(C)C4CC4)nc3n2-c2c(OC)cccc2OC)n1` [Example 77, N-(1-(2,6-dimethoxyphenyl)-2-(6-ethoxypyridin-2-yl)-1H-imidazo[4,5-b]pyrazin-6-yl)-N′-methyl-N′-cyclopropylsulfamide]: the half-maximal effective concentration (EC50) is less than 1 nM.
For `CCOc1cccc(-c2nc3ncc(NS(=O)(=O)Cc4ccc(F)cn4)nc3n2-c2c(OC)cccc2OC)n1` [Example 78, N-(1-(2,6-dimethoxyphenyl)-2-(6-ethoxypyridin-2-yl)-1H-imidazo[4,5-b]pyrazin-6-yl)-1-(5-fluoropyridin-2-yl)methanesulfonamide], the 50% effective concentration (EC50) is less than 1 nM.

Source of the values: patent US11944622B2 (Annapurna Bio, Inc., priority 2018, dated 2024).
